# What was measured:
# [1] = system: K562 human chronic myelogenous leukemia cells; experiment: In vitro anti-proliferative effect, CCK-8 method, K562; type: cell-based; details: Homo sapiens, K562
# Method: (§1) The inhibitory activities of the compounds towards Hut78 T lymphocytic leukemia cells, Jurkat E6-1 human T-cell lymphoma, PANC-1 human pancreatic cancer cells, A549 human lung cancer cells, K562 human chronic myelogenous leukemia cells, Hep3B2.1-7 human liver cancer cells, MDA-MB-435s human breast cancer cells. Colo320 human colorectal cancer cell lines, and PC-3 human prostate cancer at two concentrations of 100 μM and 10 μM were determined. The inhibition percentages were obtained through CCK-8 method.
# [2] = system: Jurkat E6-1 human T-cell lymphoma; experiment: In vitro anti-proliferative effect, CCK-8 method, Jurkat E6-1; type: cell-based; details: Homo sapiens, Jurkat E6.1
# Method: as §1
# [3] = system: Colo320 human colorectal cancer cell lines; experiment: In vitro anti-proliferative effect, CCK-8 method, Colo320; type: cell-based; details: Homo sapiens, COLO 320, Colo320 cell strain, CCK-8 method; for inhibition at 10 µM: compound at 10 μM; for inhibition at 100 µM: compound at 100 μM
# Method: as §1
# [4] = system: PANC-1 human pancreatic cancer cells; experiment: In vitro anti-proliferative effect, CCK-8 method, PANC-1; type: cell-based; details: Homo sapiens, PANC-1
# Method: as §1
# [5] = system: Hut78 T lymphocytic leukemia cells; experiment: In vitro anti-proliferative effect, CCK-8 method, Hut78; type: cell-based; details: Homo sapiens, HuT78, read-out: Hut-78 (inhibition %)
# Method: as §1
# HDAC1 = HDAC1 (Homo sapiens (Human), UniProt Q13547); experiment: In vitro inhibition of subtype HDAC1 (HDAC1 Inhibitor Drug Screening Kit, Biovision); type: biochemical; details: for inhibition at 1 µM / inhibition at 10 µM: read-out: % Inhibition towards HDAC1; for inhibitory activity against HDAC1 compared with MS-275: both concentrations 10 μM and 1 μM
# Chain of HDAC1 (Q13547 whole entry): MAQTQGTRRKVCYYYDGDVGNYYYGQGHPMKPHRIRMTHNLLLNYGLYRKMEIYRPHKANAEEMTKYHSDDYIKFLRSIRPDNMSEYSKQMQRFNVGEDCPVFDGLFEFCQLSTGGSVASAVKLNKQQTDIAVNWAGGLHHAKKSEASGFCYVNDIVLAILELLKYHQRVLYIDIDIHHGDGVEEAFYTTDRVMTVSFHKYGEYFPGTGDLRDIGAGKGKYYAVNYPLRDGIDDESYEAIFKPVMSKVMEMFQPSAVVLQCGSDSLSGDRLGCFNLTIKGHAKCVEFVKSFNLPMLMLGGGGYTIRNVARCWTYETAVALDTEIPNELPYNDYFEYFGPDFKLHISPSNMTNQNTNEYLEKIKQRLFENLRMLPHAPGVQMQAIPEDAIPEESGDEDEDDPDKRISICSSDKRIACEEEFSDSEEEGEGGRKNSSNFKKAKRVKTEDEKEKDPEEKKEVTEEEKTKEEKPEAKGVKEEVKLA
# Method: The in vitro inhibitory activities of the compounds towards the subtype HDAC1 were tested according to the instructions in the HDAC1 Inhibitor Drug Screening Kit (Biovision).
# (1) The compounds to be tested were each individually prepared as 10 μM and 1 μM solutions and their inhibitory activities at these concentrations were tested.
# Each dilution sample was placed in two wells and the enzyme inhibition IC50 of the compound was tested.
# HDACs = experiment: In vitro inhibition of HDACs (HDAC Inhibitor Drug Screening Kit, Biovision K340-100); type: biochemical
# Method: The in vitro inhibitory activities of the compounds towards HDACs were tested according to the instructions in the HDAC Inhibitor Drug Screening Kit (Biovision/Catalog #K340-100).
# (1) The compounds to be tested were each individually prepared as 2 mM, 200 μM and 40 μM solutions and their inhibitory activities at these concentrations were tested.
# [6] = system: Hep3B2.1-7 human liver cancer cells; experiment: In vitro anti-proliferative effect, CCK-8 method, Hep3B; type: cell-based; details: Homo sapiens, Hep3B cell strain, CCK-8 method; for inhibition at 10 µM: compound at 10 μM; for inhibition at 100 µM: compound at 100 μM
# Method: as §1
# [7] = system: PC-3 human prostate cancer; experiment: In vitro anti-proliferative effect, CCK-8 method, PC-3; type: cell-based; details: Homo sapiens, PC-3 cell strain, CCK-8 method; for inhibition at 10 µM: compound at 10 μM; for inhibition at 100 µM: compound at 100 μM
# Method: as §1
# [8] = system: A549 human lung cancer cells; experiment: In vitro anti-proliferative effect, CCK-8 method, A549; type: cell-based; details: Homo sapiens, A549
# Method: as §1
# [9] = system: MDA-MB-435s human breast cancer cells; experiment: In vitro anti-proliferative effect, CCK-8 method, MDA-MB-435s; type: cell-based; details: Homo sapiens, MDA-MB-435S
# Method: as §1
SMILES,inhibition at 10 µM [1] [%],inhibition at 100 µM [1] [%],inhibition at 10 µM [2] [%],inhibition at 100 µM [2] [%],inhibition at 10 µM [3] [%],inhibition at 100 µM [3] [%],inhibition at 10 µM [4] [%],inhibition at 100 µM [4] [%],inhibition at 10 µM [5] [%],inhibition at 100 µM [5] [%],inhibition at 1 µM (HDAC1) [%],inhibition at 10 µM (HDAC1) [%],IC50 (HDACs) [µM],Inhibition percentage (%) towards HDACs (HDACs; 40 μM) [%],Inhibition percentage (%) towards HDACs (HDACs; 200 μM) [%],Inhibition percentage (%) towards HDACs (HDACs; 2 mM) [%],inhibition at 10 µM [6] [%],inhibition at 100 µM [6] [%],inhibition at 10 µM [7] [%],inhibition at 100 µM [7] [%],also measured
"COc1cccc2ncnc(Nc3ccc(C(=O)Nc4ccccc4N)cc3)c12 [Compound V-7, N-(2-aminophenyl)-4-(5-methoxy-quinazoline-4-amino)benzamide]",29.7,82.6,26.4,91,8.9,48.5,1.1,35.2,10.7,60.3,50.1,78.4,3.99,6.5,22.1,39.2,8.1,53.2,8.1,49.8,inhibitory activity against HDAC1 compared with MS-275 (HDAC1): superior to that of MS-275; inhibition at 10 µM [8]: -7.4%; inhibition at 100 µM [8]: 24.9%; inhibition at 10 µM [9]: -16.5%; inhibition at 100 µM [9]: 85.4%
COc1cccc2ncnc(Nc3ccc(C(=O)Nc4ccncc4N)cc3)c12 [Compound V-8],56.9,94.5,36.4,96.3,-1.8,86.4,-1.8,34.9,17.5,83.6,21.4,62.7,7.76,8.9,41.1,46.2,5,90.4,29.7,89.3,inhibition at 10 µM [8]: -5.9%; inhibition at 100 µM [8]: 38%; inhibition at 10 µM [9]: 14.2%; inhibition at 100 µM [9]: 94.5%
"COc1cccc2c(Nc3ccc(C(=O)Nc4cc(F)ccc4N)cc3)ncnc12 [Compound V-10, N-(2-amino-5-fluorophenyl)-4-(8-methoxy-quinazoline-4-amino)benzamide]",45,62.1,25.3,72.8,6.4,23.3,13,19,8.1,47.5,45.2,62.6,1.04,12.0,32.9,77.2,3.7,31.3,13.7,57.4,inhibitory activity according to in vitro IC50 value against HDACs compared with MS-275 (HDACs): better inhibitory activities than MS-275; inhibition at 10 µM [8]: -4.4%; inhibition at 100 µM [8]: 40.1%; inhibition at 10 µM [9]: 9.4%; inhibition at 100 µM [9]: 82.9%
"Nc1ccccc1NC(=O)c1ccc(Nc2ncnc3ccc(F)cc23)cc1 [Compound V-12, N-(2-aminophenyl)-4-(6-fluoroquinazoline-4-amino)benzamide]",49.3,69.8,25,87.4,2.4,46.1,15.8,21.9,62.5,62.5,15,49.1,0.92,16.8,43.0,85.2,4.7,67.1,25.5,61.3,inhibition at 10 µM [8]: -9%; inhibition at 100 µM [8]: 55.1%; inhibition at 10 µM [9]: 5.7%; inhibition at 100 µM [9]: 77.2%
"COCCOc1cc2ncnc(Nc3ccc(C(=O)Nc4ccccc4N)cc3)c2cc1OCCOC [Compound V-15, N-(2-aminophenyl)-4-(6,7-dimethoxyethoxyquinazoline-4-amino)benzamide]",27.2,11.9,33.7,13.9,15.3,3.9,7.2,0.5,70.7,80.4,67.1,78.8,9.4,13.7,51.5,61.4,16.3,11.2,10.9,8.6,inhibitory activity against HDAC1 compared with MS-275 (HDAC1): superior to that of MS-275; inhibition at 10 µM [8]: 4.7%; inhibition at 100 µM [8]: 3.5%; inhibition at 10 µM [9]: 21.6%; inhibition at 100 µM [9]: 21%
COCCOc1cc2ncnc(Nc3ccc(C(=O)Nc4ccncc4N)cc3)c2cc1OCCOC [Compound V-16],42.8,29.7,37.2,22.1,-2.3,-17.1,8,7.8,26.2,20.7,59.1,87.4,6.89,24.8,56.8,58.6,24.8,13.5,5.1,3.4,inhibitory activity against HDAC1 compared with MS-275 (HDAC1): superior to that of MS-275; inhibition at 10 µM [8]: 48.7%; inhibition at 100 µM [8]: 65.7%; inhibition at 10 µM [9]: 49.8%; inhibition at 100 µM [9]: 50.4%
